According to ChEMBL document CHEMBL5120875, “Discovery of diarylheptanoids that activate α7 nAchR-JAK2-STAT3 signaling in macrophages with anti-inflammatory activity in vitro and in vivo” (Bioorg Med Chem, 2022):
pIC50: −log10 of the molar value. Active and inactive are the calls of the source. The rule behind the calls is not given here.

Experiments:
RAW264.7 [1] = test: Antiinflammatory activity in mouse RAW264.7 cells assessed as inhibition of LPS-induced IL-6 production at 10 uM preincubated for 2 hrs followed by LPS-stimulation for 24 hrs by ELISA; assay type: functional, cell-based; details: time 26.0 hrs
RAW264.7 [2] = test: Antiinflammatory activity in mouse RAW264.7 cells assessed as inhibition of LPS-induced IL-1beta production at 10 uM preincubated for 2 hrs followed by LPS-stimulation for 24 hrs by ELISA; assay type: functional, cell-based; details: time 26.0 hrs
RAW264.7 [3] = test: Activation of NF-kappaB signalling pathway in mouse RAW264.7 cells assessed as suppression of LPS-induced IkappaBalpha phosphorylation pretreated with compound for 2 hrs followed by LPS-stimulation for 30 mins by Western blot analysis; assay type: cell-based; details: filed as activator, dose 0.2-5 µM, time 2.5 hrs
Mus musculus [4] = test: (§1) Antiinflammatory activity in LPS-induced ICR sepsis mouse model assessed as attenuation of LPS-induced lung damage at 5 mg/kg, ip pretreated with compound for 5 days followed by LPS stimulation and measured 2 hrs post last dose by hematoxylin and eosin staining based microscopic analysis; assay type: functional, organism-based; details: time 5.0 day
Mus musculus [5] = test: as §1, with “inflammatory cell infiltration” for “lung damage”; assay type: functional, organism-based; details: time 5.0 day
Mus musculus [6] = test: Antiinflammatory activity in LPS-induced ICR sepsis mouse model assessed as suppression of LPS-induced serum interleukin-6 level at 5 to 20 mg/kg, ip pretreated with compound for 5 days followed by LPS stimulation and measured 2 hrs post last dose by ELISA analysis; assay type: functional, organism-based; details: dose 5-20 mg/kg, time 5.0 day
RAW264.7 [7] = test: Antiinflammatory activity in mouse RAW264.7 cells assessed as decrease in LPS-induced IL-1beta mRNA expression at 0.2 to 5 uM preincubated for 2 hrs followed by LPS-stimulation for 24 hrs by qRT-PCR analysis; assay type: functional, cell-based; details: dose 0.2-5 µM, time 26.0 hrs
RAW264.7 [8] = test: Antiinflammatory activity in mouse RAW264.7 cells assessed as inhibition of LPS-induced iNOS mRNA expression preincubated for 2 hrs followed by LPS stimulation for 24 hrs by qRT-PCR analysis; assay type: functional, cell-based; details: dose 0.2-5 µM, time 26.0 hrs, DDE = dose-dependent effect
RAW264.7 [9] = test: Antiinflammatory activity in LPS-induced mouse RAW264.7 cells assessed as enhancement of JAK2 phosphorylation pretreated with compound for 2 hrs followed by LPS-stimulation and measured after 30 mins by Western blot analysis; assay type: functional, cell-based; details: dose 0.2-5 µM, time 2.5 hrs, DDE = dose-dependent effect
Mus musculus [10] = test: Antiinflammatory activity in LPS-induced ICR sepsis mouse model assessed as suppression of LPS-induced serum interleukin-1beta level at 5 to 20 mg/kg, ip pretreated with compound for 5 days followed by LPS stimulation and measured 2 hrs post last dose by ELISA analysis; assay type: functional, organism-based; details: dose 5-20 mg/kg, time 5.0 day
RAW264.7 [11] = test: Inhibition of LPS-induced NO production in mouse RAW264.7 cells preincubated with compound for 2 hrs followed by LPS stimulation for 24 hrs by Griess reagent based assay; assay type: functional, cell-based
RAW264.7 [12] = test: Activation of NF-kappaB signalling pathway in mouse RAW264.7 cells assessed as suppression of LPS-induced IkappaBalpha degradation pretreated with compound for 2 hrs followed by LPS-stimulation for 30 mins by Western blot analysis; assay type: cell-based; details: filed as activator, dose 0.2-5 µM, time 2.5 hrs, DDE = dose-dependent effect
[13] = molecular target: T1, Signal transducer and activator of transcription 1 (Mus musculus) (UniProt P42225); test: Inhibition of LPS-induced STAT1 phosphorylation in mouse RAW264.7 cells pretreated with compound for 2 hrs followed by LPS-stimulation and measured after 30 mins by immunoblot analysis; assay type: cell-based; details: dose 0.2-5 µM, time 2.5 hrs, DDE = dose-dependent effect
T1 sequence (whole entry): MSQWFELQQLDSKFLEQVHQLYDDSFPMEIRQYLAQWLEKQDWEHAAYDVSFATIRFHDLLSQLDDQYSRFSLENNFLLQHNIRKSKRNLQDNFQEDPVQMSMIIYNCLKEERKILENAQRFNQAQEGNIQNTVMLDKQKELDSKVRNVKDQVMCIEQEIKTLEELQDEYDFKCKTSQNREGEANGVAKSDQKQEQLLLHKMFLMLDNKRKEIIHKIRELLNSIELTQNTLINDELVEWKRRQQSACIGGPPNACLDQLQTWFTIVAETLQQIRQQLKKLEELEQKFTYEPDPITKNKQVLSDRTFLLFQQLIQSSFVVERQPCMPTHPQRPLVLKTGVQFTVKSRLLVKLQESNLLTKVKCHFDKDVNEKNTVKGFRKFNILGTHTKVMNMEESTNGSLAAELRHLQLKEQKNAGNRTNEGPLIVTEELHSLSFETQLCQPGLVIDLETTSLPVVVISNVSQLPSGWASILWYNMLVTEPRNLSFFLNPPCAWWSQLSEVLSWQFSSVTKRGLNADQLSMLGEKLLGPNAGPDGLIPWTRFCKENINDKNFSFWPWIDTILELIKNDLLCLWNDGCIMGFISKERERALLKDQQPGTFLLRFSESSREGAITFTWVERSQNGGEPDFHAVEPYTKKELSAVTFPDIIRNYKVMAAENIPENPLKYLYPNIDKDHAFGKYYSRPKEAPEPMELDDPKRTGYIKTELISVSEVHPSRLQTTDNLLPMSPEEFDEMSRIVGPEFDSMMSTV

RAW264.7 [14] = test: Antiinflammatory activity in mouse RAW264.7 cells assessed as inhibition of LPS-induced IL-1beta production preincubated for 2 hrs followed by LPS-stimulation for 24 hrs by ELISA; assay type: functional, cell-based; details: dose 0.2-5 µM, time 26.0 hrs, DDE = dose-dependent effect
RAW264.7 [15] = test: Antiinflammatory activity in mouse RAW264.7 cells assessed as decrease in LPS-induced IL-6 mRNA expression at 0.2 to 5 uM preincubated for 2 hrs followed by LPS-stimulation for 24 hrs by qRT-PCR analysis; assay type: functional, cell-based; details: dose 0.2-5 µM, time 26.0 hrs
Mus musculus [16] = test: Antiinflammatory activity in LPS-induced ICR sepsis mouse model assessed as high survival rate at 5 to 20 mg/kg, ip pretreated with compound for 5 days followed by LPS stimulation and measured 2 hrs post last dose; assay type: functional, organism-based; details: dose 5-20 mg/kg, time 5.0 day
RAW264.7 [17] = test: (§2) Antiinflammatory activity in LPS-induced mouse RAW264.7 cells assessed as enhancement of STAT3 phosphorylation at 0.2 to 5 uM pretreated with alpha7 nAChR antagonist alpha-bungarotoxin for 1 hr followed by compound treatment for 2 hrs and further stimulated with LPS for 30 mins by Western blot analysis; assay type: functional, cell-based; details: dose 0.2-5 µM, time 2.5 hrs
RAW264.7 [18] = test: Inhibition of LPS-induced NO production in mouse RAW264.7 cells at 5 uM preincubated with compound for 2 hrs followed by LPS stimulation for 24 hrs by Griess reagent based assay relative to control; assay type: functional; details: time 26 hrs
RAW264.7 [19] = test: Activation of NF-kappaB signalling pathway in mouse RAW264.7 cells assessed as decrease in LPS-induced AKT phosphorylation at 0.2 to 5 uM pretreated with compound for 2 hrs followed by LPS-stimulation for 30 mins by Western blot analysis; assay type: cell-based; details: filed as activator, dose 0.2-5 µM, time 2.5 hrs
RAW264.7 [20] = test: Antiinflammatory activity in LPS-induced mouse RAW264.7 cells assessed as enhancement of STAT3 phosphorylation pretreated with compound for 2 hrs followed by LPS-stimulation and measured after 30 mins by Western blot analysis; assay type: functional, cell-based; details: dose 0.2-5 µM, time 2.5 hrs, DDE = dose-dependent effect
RAW264.7 [21] = test: Antiinflammatory activity in LPS-stimulated mouse RAW264.7 cells assessed as inhibition of NO production at 0.2 to 5 uM pretreated with alpha7 nAChR antagonist alpha-bungarotoxin for 1 hr followed by compound treatment for 2 hrs and further stimulated with LPS for […] reagent based assay; assay type: functional, cell-based; details: dose 0.2-5 µM
RAW264.7 [22] = test: Antiinflammatory activity in mouse RAW264.7 cells assessed as inhibition of LPS-induced iNOS protein expression preincubated for 2 hrs followed by LPS stimulation for 24 hrs by qRT-PCR analysis; assay type: functional, cell-based; details: time 26.0 hrs, DDE = dose-dependent effect
Mus musculus [23] = test: Antiinflammatory activity in LPS-induced ICR sepsis mouse model assessed as attenuation of LPS-induced inflammatory cell infiltration at 5 to 20 mg/kg, ip pretreated with compound for 5 days followed by LPS stimulation and measured 2 hrs post last dose by hematoxylin and eosin staining based microscopic analysis; assay type: functional, organism-based; details: dose 5-20 mg/kg, time 5.0 day
Mus musculus [24] = test: Antiinflammatory activity in LPS-induced ICR sepsis mouse model assessed as attenuation of LPS-induced lung damage at 5 to 20 mg/kg, ip pretreated with compound for 5 days followed by LPS stimulation and measured 2 hrs post last dose by hematoxylin and eosin staining based microscopic analysis; assay type: functional, organism-based; details: dose 5-20 mg/kg, time 5.0 day
RAW264.7 [25] = test: Cytotoxicity against mouse RAW264.7 cells assessed as effect on cell viability at 5 uM incubated for 24 hrs by alamar blue reagent based fluorescence assay; assay type: toxicity; details: raw264.7, 24 h
RAW264.7 [26] = test: Antiinflammatory activity in mouse RAW264.7 cells assessed as inhibition of LPS-induced IL-6 production preincubated for 2 hrs followed by LPS-stimulation for 24 hrs by ELISA; assay type: functional, cell-based; details: dose 0.2-5 µM, time 26.0 hrs, DDE = dose-dependent effect
RAW264.7 [27] = test: as §2, with “LPS-stimulated” for “LPS-induced”, “inhibition” for “enhancement”, “IkappaBalpha degradation” for “STAT3 phosphorylation”, “antagonist,” for “antagonist”; assay type: functional, cell-based; details: dose 0.2-5 µM, time 2.5 hrs
RAW264.7 [28] = test: as §2, with “JAK2” for “STAT3”; assay type: functional, cell-based; details: dose 0.2-5 µM, time 2.5 hrs
THP-1 [29] = test: Antiinflammatory activity in LPS/IFNgamma-stimulated human THP-1 monocytes assessed as inhibition of NO production pretreated with PMA for 24 hrs and incubated alpha-bungarotoxin for 1 hr followed by compound addition for 2 hrs and further stimulated with LPS/INF-gamma for 22 hrs by Griess reagent based assay; assay type: functional, cell-based
[30] = molecular target: Neuronal acetylcholine receptor subunit alpha-7 (Mus musculus) (UniProt P49582); test: Binding affinity to alpha7 nAChR in mouse RAW264.7 cells assessed as increase in thermal stability at 200 uM incubated for 30 min by CETSA; assay type: cell-based; details: filed as agonist
Neuronal acetylcholine receptor subunit alpha-7 (Mus musculus), sequence (P49582 whole entry): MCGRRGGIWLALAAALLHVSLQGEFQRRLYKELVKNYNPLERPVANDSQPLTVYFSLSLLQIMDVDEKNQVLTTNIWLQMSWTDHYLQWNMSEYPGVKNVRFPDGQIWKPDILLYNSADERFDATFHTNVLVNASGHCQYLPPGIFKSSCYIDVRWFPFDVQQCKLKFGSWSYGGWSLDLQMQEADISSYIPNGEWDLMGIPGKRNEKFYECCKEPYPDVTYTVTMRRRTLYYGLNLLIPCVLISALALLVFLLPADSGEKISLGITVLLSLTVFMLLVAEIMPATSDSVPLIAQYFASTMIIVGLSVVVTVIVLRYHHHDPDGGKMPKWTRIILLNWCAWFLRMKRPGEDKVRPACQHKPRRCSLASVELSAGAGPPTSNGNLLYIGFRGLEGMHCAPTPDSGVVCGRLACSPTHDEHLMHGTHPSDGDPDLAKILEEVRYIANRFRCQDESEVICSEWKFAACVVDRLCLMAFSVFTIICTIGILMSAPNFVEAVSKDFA

THP-1 [31] = test: Antiinflammatory activity in human THP-1 monocytes assessed as reduction in LPS/Interferon-gamma NO production at 0.2 to 5 uM pretreated with PMA for 24 hrs followed by compound addition 2 hrs and stimulated with LPS/Interferon-gamma for 22 hrs by Griess reagent based assay; assay type: functional, cell-based; details: dose 0.2-5 µM
Peritoneal macrophage = test: Antiinflammatory activity in mouse peritoneal macrophages assessed as reduction in LPS-induced NO production at 0.2 to 5 uM preincubated for 2 hrs followed by LPS-stimulation for 22 hrs by Griess reagent based assay; assay type: functional, cell-based; details: dose 0.2-5 µM, time 24.0 hrs

Row | SMILES | Activity (RAW264.7 [7]) | Activity (RAW264.7 [8]) | Activity (RAW264.7 [9]) | pIC50 (RAW264.7 [11]) | Activity (RAW264.7 [12]) | inhibition [13] | Activity (RAW264.7 [14]) | Activity (RAW264.7 [15]) | Activity (RAW264.7 [17]) | Activity (RAW264.7 [3]; DDE = dose-dependent effect) | inhibition at 5 µM (RAW264.7 [18]) [%] | Activity (RAW264.7 [19]) | Activity (RAW264.7 [20]) | Activity (RAW264.7 [22]) | Activity (RAW264.7 [25]) | Activity (RAW264.7 [26]) | Activity (RAW264.7 [28]) | also measured
1 | Cc1ccc(S(=O)(=O)/C=C/C#N)cc1 |  |  |  |  |  |  |  |  |  |  |  |  |  |  |  |  |  | Activity (RAW264.7 [1]): Active; Activity (RAW264.7 [2]): Active; Activity (RAW264.7 [3]): Active
2 | C[C@@H]1C[C@H]2[C@@H]3CCC4=CC(=O)C=C[C@]4(C)[C@@]3(F)[C@@H](O)C[C@]2(C)[C@@]1(O)C(=O)CO |  |  |  |  |  |  |  |  |  |  |  |  |  |  |  |  |  | Activity (Mus musculus [4]): Active; Activity (Mus musculus [5]): Active
3 | CC(=O)Oc1ccc(CC[C@H](CCCCc2ccccc2)OC(C)=O)cc1OC(C)=O | Active | Dde | Dde | 6.49 | Dde | Dde | Dde | Active | Active | Dde | 93.2 | Active | Dde | Dde | Non-Toxic | Dde | Active | Activity (Mus musculus [6]): Active; Activity (Mus musculus [10]): Active; Activity (Mus musculus [16]): Active; Activity (RAW264.7 [21]): Active; Activity (Mus musculus [23]): Active; Activity (Mus musculus [24]): Active; Activity (RAW264.7 [27]): Active
4 | COc1ccc(/C=C/C=C/C(=O)/C=C/c2ccc(OC)c(O)c2)c(OC)c1 | Active | Dde | Dde | 6.26 | Dde | Dde | Dde | Active | Active | Dde | 106 | Active | Dde | Dde | Non-Toxic | Dde | Active | Activity (THP-1 [29]): Active; Activity [30]: Active; Activity (THP-1 [31]): Active; Activity (Peritoneal macrophage): Active
